Source: ChEMBL document CHEMBL1156011, “Identification of orally bioavailable, non-amidine inhibitors of Urokinase Plasminogen Activator (uPA)” (Bioorg Med Chem Lett, 2009)

Tested on: not listed separately
Experiment: Volume of distribution in rat
Type: ADME, organism-based
Settings: in vivo

Vd	Compound
1.15 L/kg	CN(C)c1ccc(C(=O)O)c(Oc2nc(Oc3cccc(-c4cccc(CN)c4)c3)c(F)cc2F)c1
1 L/kg	CN(C)c1ccc(C(=O)O)c(Oc2nc(Oc3cccc(-c4cccc(CN)c4)c3)c(F)c(N3CCC(N(C)C)C3)c2F)c1 (stereo unspecified)
0.7 L/kg	Cc1ccc(C(=O)O)c(Oc2nc(Oc3cccc(-c4cccc(CN)c4)c3)c(F)cc2F)c1
4.6 L/kg	Cc1ccc(C(=O)O)c(Oc2nc(Oc3cc(N)cc(-c4cccc(CN)c4)c3)c(F)cc2F)c1

Tested on: not listed separately
Experiment: Half life in rat
Type: ADME, organism-based
Settings: in vivo

half-life	Compound
30 min	CN(C)c1ccc(C(=O)O)c(Oc2nc(Oc3cccc(-c4cccc(CN)c4)c3)c(F)cc2F)c1
276 min	CN(C)c1ccc(C(=O)O)c(Oc2nc(Oc3cccc(-c4cccc(CN)c4)c3)c(F)c(N3CCC(N(C)C)C3)c2F)c1 (stereo unspecified)
30 min	Cc1ccc(C(=O)O)c(Oc2nc(Oc3cccc(-c4cccc(CN)c4)c3)c(F)cc2F)c1
15.6 min	Cc1ccc(C(=O)O)c(Oc2nc(Oc3cc(N)cc(-c4cccc(CN)c4)c3)c(F)cc2F)c1

Molecular target: Tissue-type plasminogen activator (Homo sapiens, UniProt P00750)
Experiment: Inhibition of tPA
Settings: not given

Tissue-type plasminogen activator, sequence (P00750 whole entry): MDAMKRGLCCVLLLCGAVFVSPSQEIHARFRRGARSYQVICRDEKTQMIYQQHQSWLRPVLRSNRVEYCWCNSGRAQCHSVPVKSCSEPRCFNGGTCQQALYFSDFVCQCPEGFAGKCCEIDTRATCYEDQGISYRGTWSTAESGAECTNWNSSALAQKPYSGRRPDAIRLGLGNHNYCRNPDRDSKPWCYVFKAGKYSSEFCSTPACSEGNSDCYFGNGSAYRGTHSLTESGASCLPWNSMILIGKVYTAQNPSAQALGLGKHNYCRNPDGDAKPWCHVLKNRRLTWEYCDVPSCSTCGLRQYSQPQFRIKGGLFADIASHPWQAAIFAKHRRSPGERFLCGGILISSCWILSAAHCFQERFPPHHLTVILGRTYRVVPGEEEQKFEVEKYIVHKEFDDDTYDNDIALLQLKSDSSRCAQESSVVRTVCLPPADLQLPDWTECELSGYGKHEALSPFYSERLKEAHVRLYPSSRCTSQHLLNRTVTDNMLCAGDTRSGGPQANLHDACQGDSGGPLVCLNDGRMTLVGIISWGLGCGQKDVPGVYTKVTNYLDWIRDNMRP

IC50	Compound
16 µM	CNc1c(F)c(Oc2cccc(-c3cccc(CN)c3)c2)nc(Oc2cc(N(C)C)ccc2C(=O)O)c1F
15 µM	Cc1ccc(C(=O)O)c(Oc2nc(Oc3cc(-c4cccc(CN)c4)ccc3N)c(F)cc2F)c1
> 30 µM	COc1ccc(C(=O)O)c(Oc2nc(Oc3cccc(-c4cccc(CN)c4)c3)c(F)cc2F)c1
3.9 µM	Cc1c(F)c(Oc2cccc(-c3cccc(C(=N)N)c3)c2)nc(Oc2cc(N(C)C)ccc2C(=O)O)c1F
18 µM	CN(C)c1ccc(C(=O)O)c(Oc2nc(Oc3cccc(-c4cccc(CN)c4)c3)c(F)cc2F)c1
14 µM	Cc1ccc(C(=O)O)c(Oc2nc(Oc3cc(O)cc(-c4cccc(CN)c4)c3)c(F)cc2F)c1
28 µM	CN(C)CCN(C)c1c(F)c(Oc2cccc(-c3cccc(CN)c3)c2)nc(Oc2cc(N(C)C)ccc2C(=O)O)c1F
11 µM	CN(C)c1ccc(C(=O)O)c(Oc2nc(Oc3cccc(-c4cccc(CN)c4)c3)c(F)c(N3CCNCC3)c2F)c1
> 30 µM	NCc1cccc(-c2cccc(Oc3nc(Oc4ccccc4C(=O)O)c(F)cc3F)c2)c1
5.2 µM	CN(C)c1ccc(C(=O)O)c(Oc2nc(Oc3cccc(-c4cccc(CN)c4)c3)c(F)c(N3CCC(N(C)C)C3)c2F)c1 (stereo unspecified)
22 µM	Cc1ccc(C(=O)O)c(Oc2nc(Oc3cccc(-c4cccc(CN)c4)c3)c(F)cc2F)c1
> 30 µM	Cc1ccc(C(=O)O)c(Oc2nc(Oc3cc(N)cc(-c4cccc(CN)c4)c3)c(F)cc2F)c1
> 30 µM	CN(C)c1ccc(C(=O)O)c(Oc2nc(Oc3cccc(-c4cccc(CN)c4)c3)c(F)c(N(C)C)c2F)c1

Compound	IC50
Cc1ccc(C(=O)O)c(Oc2nc(Oc3cc(N)cc(-c4cccc(CN)c4)c3)c(F)c(N3CCC(N(C)C)C3)c2F)c1 (stereo unspecified)	8.5 µM
CN(C)c1ccc(C(=O)O)c(Oc2nc(Oc3cccc(-c4cccc(CN)c4)c3)c(F)c(N3CCOCC3)c2F)c1	10 µM

Tested on: not listed separately
Experiment: Oral bioavailability in rat
Type: ADME, organism-based
Settings: in vivo

bioavailability	Compound
9%	CN(C)c1ccc(C(=O)O)c(Oc2nc(Oc3cccc(-c4cccc(CN)c4)c3)c(F)cc2F)c1
0%	CN(C)c1ccc(C(=O)O)c(Oc2nc(Oc3cccc(-c4cccc(CN)c4)c3)c(F)c(N3CCC(N(C)C)C3)c2F)c1 (stereo unspecified)
37%	Cc1ccc(C(=O)O)c(Oc2nc(Oc3cccc(-c4cccc(CN)c4)c3)c(F)cc2F)c1
18%	Cc1ccc(C(=O)O)c(Oc2nc(Oc3cc(N)cc(-c4cccc(CN)c4)c3)c(F)cc2F)c1

Molecular target: Plasminogen (Homo sapiens, UniProt P00747)
Experiment: Inhibition of plasmin
Settings: not given

Plasminogen, sequence (P00747 97-580 limits assumed): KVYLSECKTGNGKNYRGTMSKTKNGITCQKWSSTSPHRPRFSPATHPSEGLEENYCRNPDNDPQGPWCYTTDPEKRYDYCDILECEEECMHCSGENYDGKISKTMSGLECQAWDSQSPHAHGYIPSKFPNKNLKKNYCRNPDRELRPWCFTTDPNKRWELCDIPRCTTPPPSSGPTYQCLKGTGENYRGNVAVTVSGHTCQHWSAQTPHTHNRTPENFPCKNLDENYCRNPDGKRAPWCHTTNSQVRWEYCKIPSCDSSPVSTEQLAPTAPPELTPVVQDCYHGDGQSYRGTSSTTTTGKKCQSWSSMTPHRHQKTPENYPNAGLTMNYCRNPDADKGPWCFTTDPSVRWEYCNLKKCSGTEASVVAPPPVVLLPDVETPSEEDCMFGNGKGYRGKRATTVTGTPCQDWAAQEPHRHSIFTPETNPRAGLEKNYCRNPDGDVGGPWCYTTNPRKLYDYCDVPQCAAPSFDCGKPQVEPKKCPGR
Plasminogen, sequence (P00747 581-810 limits assumed): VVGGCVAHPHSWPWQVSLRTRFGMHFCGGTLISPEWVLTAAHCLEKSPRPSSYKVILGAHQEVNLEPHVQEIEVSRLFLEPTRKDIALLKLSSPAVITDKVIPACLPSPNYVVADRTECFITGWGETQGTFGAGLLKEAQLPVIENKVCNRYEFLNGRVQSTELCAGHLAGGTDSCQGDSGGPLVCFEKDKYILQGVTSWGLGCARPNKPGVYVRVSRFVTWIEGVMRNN

IC50	Compound
3.6 µM	CNc1c(F)c(Oc2cccc(-c3cccc(CN)c3)c2)nc(Oc2cc(N(C)C)ccc2C(=O)O)c1F
11 µM	Cc1ccc(C(=O)O)c(Oc2nc(Oc3cc(-c4cccc(CN)c4)ccc3N)c(F)cc2F)c1
9.4 µM	COc1ccc(C(=O)O)c(Oc2nc(Oc3cccc(-c4cccc(CN)c4)c3)c(F)cc2F)c1
2.7 µM	Cc1ccc(C(=O)O)c(Oc2nc(Oc3cc(CN)cc(-c4cccc(CN)c4)c3)c(F)cc2F)c1
2.1 µM	Cc1c(F)c(Oc2cccc(-c3cccc(C(=N)N)c3)c2)nc(Oc2cc(N(C)C)ccc2C(=O)O)c1F
6.5 µM	CN(C)c1ccc(C(=O)O)c(Oc2nc(Oc3cccc(-c4cccc(CN)c4)c3)c(F)cc2F)c1
5.5 µM	Cc1ccc(C(=O)O)c(Oc2nc(Oc3cc(O)cc(-c4cccc(CN)c4)c3)c(F)cc2F)c1
8.6 µM	Cc1cccc(C(=O)O)c1Oc1nc(Oc2cccc(-c3cccc(CN)c3)c2)c(F)cc1F
6.3 µM	CN(C)CCN(C)c1c(F)c(Oc2cccc(-c3cccc(CN)c3)c2)nc(Oc2cc(N(C)C)ccc2C(=O)O)c1F
4.4 µM	CN(C)c1ccc(C(=O)O)c(Oc2nc(Oc3cccc(-c4cccc(CN)c4)c3)c(F)c(N3CCNCC3)c2F)c1
21 µM	NCc1cccc(-c2cccc(Oc3nc(Oc4ccccc4C(=O)O)c(F)cc3F)c2)c1
1.9 µM	CN(C)c1ccc(C(=O)O)c(Oc2nc(Oc3cccc(-c4cccc(CN)c4)c3)c(F)c(N3CCC(N(C)C)C3)c2F)c1 (stereo unspecified)
5 µM	Cc1ccc(C(=O)O)c(Oc2nc(Oc3cccc(-c4cccc(CN)c4)c3)c(F)cc2F)c1
2.8 µM	CC(C)c1ccc(C(=O)O)c(Oc2nc(Oc3cccc(-c4cccc(CN)c4)c3)c(F)cc2F)c1
5 µM	Cc1ccc(C(=O)O)c(Oc2nc(Oc3cc(N)cc(-c4cccc(CN)c4)c3)c(F)cc2F)c1
2.9 µM	CN(C)c1ccc(C(=O)O)c(Oc2nc(Oc3cccc(-c4cccc(CN)c4)c3)c(F)c(N(C)C)c2F)c1

Compound	IC50
Cc1ccc(C(=O)O)c(Oc2nc(Oc3cc(N)cc(-c4cccc(CN)c4)c3)c(F)c(N3CCC(N(C)C)C3)c2F)c1 (stereo unspecified)	3 µM
CN(C)c1ccc(C(=O)O)c(Oc2nc(Oc3cccc(-c4cccc(CN)c4)c3)c(F)c(N3CCOCC3)c2F)c1	2.1 µM

Tested on: not listed separately
Experiment: Cmax in rat
Type: ADME, organism-based
Settings: in vivo

Cmax	Compound
33 ng/mL	CN(C)c1ccc(C(=O)O)c(Oc2nc(Oc3cccc(-c4cccc(CN)c4)c3)c(F)cc2F)c1
220 ng/mL	Cc1ccc(C(=O)O)c(Oc2nc(Oc3cccc(-c4cccc(CN)c4)c3)c(F)cc2F)c1
59 ng/mL	Cc1ccc(C(=O)O)c(Oc2nc(Oc3cc(N)cc(-c4cccc(CN)c4)c3)c(F)cc2F)c1

Molecular target: Urokinase-type plasminogen activator (Homo sapiens, UniProt P00749)
Experiment: Inhibition of uPA
Settings: not given

IC50	Compound
> 30 µM	CN(C)c1ccc(C(=O)O)c(Oc2nc(Oc3cccc(-c4ccc(CN)cc4)c3)c(F)cc2F)c1
0.13 µM	CNc1c(F)c(Oc2cccc(-c3cccc(CN)c3)c2)nc(Oc2cc(N(C)C)ccc2C(=O)O)c1F
> 30 µM	CN(C)Cc1cccc(-c2cccc(Oc3nc(Oc4cc(N(C)C)ccc4C(=O)O)c(F)cc3F)c2)c1
0.089 µM	Cc1ccc(C(=O)O)c(Oc2nc(Oc3cc(-c4cccc(CN)c4)ccc3N)c(F)cc2F)c1
0.22 µM	COc1ccc(C(=O)O)c(Oc2nc(Oc3cccc(-c4cccc(CN)c4)c3)c(F)cc2F)c1
8.1 µM	NCc1cccc(-c2cccc(Oc3nc(Oc4ccccc4CC(=O)O)c(F)cc3F)c2)c1
> 30 µM	CNCc1cccc(-c2cccc(Oc3nc(Oc4cc(N(C)C)ccc4C(=O)O)c(F)cc3F)c2)c1
2.7 µM	Cc1ccc(C(=O)O)c(Oc2nc(Oc3cc(CN)cc(-c4cccc(CN)c4)c3)c(F)cc2F)c1
0.098 µM	Cc1c(F)c(Oc2cccc(-c3cccc(C(=N)N)c3)c2)nc(Oc2cc(N(C)C)ccc2C(=O)O)c1F
0.1 µM	CN(C)c1ccc(C(=O)O)c(Oc2nc(Oc3cccc(-c4cccc(CN)c4)c3)c(F)cc2F)c1
13 µM	Cc1ccc(-n2cnnn2)c(Oc2nc(Oc3cccc(-c4cccc(CN)c4)c3)c(F)cc2F)c1
0.023 µM	Cc1ccc(C(=O)O)c(Oc2nc(Oc3cc(O)cc(-c4cccc(CN)c4)c3)c(F)cc2F)c1
20 µM	NCc1cccc(-c2cccc(Oc3nc(Oc4cccc(C(=O)O)c4)c(F)cc3F)c2)c1
> 30 µM	NCc1cccc(-c2cccc(Oc3nc(Oc4ccc(C(=O)O)cc4)c(F)cc3F)c2)c1
0.54 µM	Cc1cccc(C(=O)O)c1Oc1nc(Oc2cccc(-c3cccc(CN)c3)c2)c(F)cc1F
0.1 µM	CN(C)CCN(C)c1c(F)c(Oc2cccc(-c3cccc(CN)c3)c2)nc(Oc2cc(N(C)C)ccc2C(=O)O)c1F
0.065 µM	CN(C)c1ccc(C(=O)O)c(Oc2nc(Oc3cccc(-c4cccc(CN)c4)c3)c(F)c(N3CCNCC3)c2F)c1
> 30 µM	Cc1ccc(C(=O)O)c(Oc2nc(Oc3ccc(N)c(-c4cccc(CN)c4)c3)c(F)cc2F)c1
0.84 µM	NCc1cccc(-c2cccc(Oc3nc(Oc4ccccc4C(=O)O)c(F)cc3F)c2)c1
26 µM	Cc1cccc(Oc2nc(Oc3cccc(-c4cccc(CN)c4)c3)c(F)cc2F)c1C(=O)O
3.5 µM	Cc1ccc(Oc2nc(Oc3cccc(-c4cccc(CN)c4)c3)c(F)cc2F)c(C(=O)O)c1
0.24 µM	Cc1ccc(C(=O)O)c(Oc2nc(Oc3cccc(-c4cccc(CN)c4)c3)c(F)cc2F)c1
0.68 µM	CC(C)c1ccc(C(=O)O)c(Oc2nc(Oc3cccc(-c4cccc(CN)c4)c3)c(F)cc2F)c1
> 30 µM	NCc1cccc(-c2cccc(Oc3nc(Oc4ccccc4CCC(=O)O)c(F)cc3F)c2)c1
0.039 µM	Cc1ccc(C(=O)O)c(Oc2nc(Oc3cc(N)cc(-c4cccc(CN)c4)c3)c(F)cc2F)c1
0.53 µM	CN(C)c1ccc(C(=O)O)c(Oc2nc(Oc3cccc(-c4cccc(CN)c4)c3)c(F)c(N(C)C)c2F)c1
1.3 µM	NCc1cccc(-c2cccc(Oc3nc(Oc4cc([N+](=O)[O-])ccc4C(=O)O)c(F)cc3F)c2)c1

Compound	IC50
Cc1ccc(C(=O)O)c(Oc2nc(Oc3cc(N)cc(-c4cccc(CN)c4)c3)c(F)c(N3CCC(N(C)C)C3)c2F)c1 (stereo unspecified)	0.015 µM
CN(C)c1ccc(C(=O)O)c(Oc2nc(Oc3cccc(-c4cccc(CN)c4)c3)c(F)c(N3CCOCC3)c2F)c1	0.9 µM

Tested on: not listed separately
Experiment: Clearance in rat
Type: ADME, organism-based
Settings: in vivo

clearance	Compound
26 mL/min/kg	CN(C)c1ccc(C(=O)O)c(Oc2nc(Oc3cccc(-c4cccc(CN)c4)c3)c(F)cc2F)c1
5 mL/min/kg	CN(C)c1ccc(C(=O)O)c(Oc2nc(Oc3cccc(-c4cccc(CN)c4)c3)c(F)c(N3CCC(N(C)C)C3)c2F)c1 (stereo unspecified)
54 mL/min/kg	Cc1ccc(C(=O)O)c(Oc2nc(Oc3cccc(-c4cccc(CN)c4)c3)c(F)cc2F)c1
257 mL/min/kg	Cc1ccc(C(=O)O)c(Oc2nc(Oc3cc(N)cc(-c4cccc(CN)c4)c3)c(F)cc2F)c1
